# From patent publication US20250066413A1, “COMPOSITIONS FOR TREATMENT OF INFLAMMATION” (Metro International Biotech, LLC, priority 2022, published 2025)
# Experiments:
# Assay type in all cases: cell-based
# [1] = system: AML12 Cells; test: NAD Elevation Assay (NAD Cellular Assay), AML12 cells; details: at 0.4-2 mM compound
# Protocol: (§1) Compounds were tested in an NAD Cellular Assay according to the following protocol. Jurkat cells (50,000 per in 100 microliters of RPMI media) were added to wells of a 96 well, conical bottomed plate. The cells were allowed to recover for 3 h in culture. A 16 microliter aliquot of a 100 mM compound stock solution was diluted with 784 microliters of medium and 10% FBS to give 800 microliters of a 2 mM compound treatment solution. The compound treatment solution was added to the cells for a final concentration of 1 mM compound (n=6 wells for each compound.) As a parallel control, nicotinamide mononucleotide (NMN) was added to cells at a final concentration of 2 mM (n=6). The plates were incubated for 24 hours, then spun at 1000 rpm for 10 min. The medium was removed, then the cells were washed with fresh PBS and spun again. […] The NAD concentration in each well was determined using a commercially available assay according to the kit instructions (e.g. Promega NAD/NADH-Glo™ Assay.) The Pierce BCA protein assay was run according to the kit instructions (e.g. ThermoScientific Catalog number 23225). […]
# (§2) Assays with other cell types were run similarly, using the appropriate compound and NMN dilutions. Cell counts were adjusted as necessary to provide a signal within the reading range of the protein and NAD assay kits.
# [2] = system: Jurkat cells; test: NAD Elevation Assay (NAD Cellular Assay), Jurkat cells; details: 1 mM compound, 24 hours
# Protocol: as §1, with “again. The PBS medium was removed, then the cells were washed one more time with PBS and spun. The liquid was removed from each well via pipette, avoiding touching the cell pellet. The cells were lysed with 75 microliters of 0.5% DTAB.” for “again.”
# [3] = system: HEPG2 Cells; test: NAD Elevation Assay (NAD Cellular Assay), HEPG2 cells
# Protocol: (§3) Compounds were tested in an NAD Cellular Assay according to the following protocol. Jurkat cells (50,000 per in 100 microliters of RPMI media) were added to wells of a 96 well, conical bottomed plate. The cells were allowed to recover for 3 h in culture. A 16 microliter aliquot of a 100 mM compound stock solution was diluted with 784 microliters of medium and 10% FBS to give 800 microliters of a 2 mM compound treatment solution. The compound treatment solution was added to the cells for a final concentration of 1 mM compound (n=6 wells for each compound.) As a parallel control, nicotinamide mononucleotide (NMN) was added to cells at a final concentration of 2 mM (n=6). The plates were incubated for 24 hours, then spun at 1000 rpm for 10 min. The medium was removed, then the cells were washed with fresh PBS and spun again. The PBS medium was removed, then the cells were washed one more time with PBS and spun. The liquid was removed from each well via pipette, avoiding touching the cell pellet. The cells were lysed with 75 microliters of 0.5% DTAB. 25 microliters of the lysate was added to each of two flat bottomed plates. One plate was used for a BCA protein assay (clear), and the other plate was used for the NAD assay (clear bottom, white walled). The NAD concentration in each well was determined using a commercially available assay according to the kit instructions (e.g. Promega NAD/NADH-Glo™ Assay.) The Pierce BCA protein assay was run according to the kit instructions (e.g. ThermoScientific Catalog number 23225). NAD levels were normalized to total protein and reported as a multiple of the NAD level in untreated cells.
# as §2
# [4] = system: NDF Cells; test: NAD Elevation Assay (NAD Cellular Assay), NDF cells; details: 0.25 mM compound
# Protocol: as §3, §2
smiles,measurement,setting,value
"Cn1cnc2c1c(=O)n(CC(=O)OCCCOC(=O)c1ccc[n+]([C@@H]3O[C@H](CO)[C@@H](O)[C@H]3O)c1)c(=O)n2C.O=S(=O)([O-])C(F)(F)F [Compound 1, 1-((2R,3R,4S,5R)-3,4-dihydroxy-5-(hydroxymethyl)tetrahydrofuran-2-yl)-3-((3-(2-(3,7-dimethyl-2,6-dioxo-2,3,6,7-tetrahydro-1H-purin-1-yl)acetoxy)propoxy)carbonyl)pyridin-1-ium trifluoromethanesulfonate]",NAD Elevation Assay,[1],Active at 0.4-2
"Cn1c(=O)c2c(ncn2CCOC(=O)c2ccc[n+]([C@@H]3O[C@H](CO)[C@@H](O)[C@H]3O)c2)n(C)c1=O.O=S(=O)([O-])C(F)(F)F [Compound 2, 1-((2R,3R,4S,5R)-3,4-dihydroxy-5-(hydroxymethyl)tetrahydrofuran-2-yl)-3-((2-(1,3-dimethyl-2,6-dioxo-1,2,3,6-tetrahydro-7H-purin-7-yl)ethoxy)carbonyl)pyridin-1-ium trifluoromethanesulfonate]","NAD Elevation Assay (NAD level normalized to total protein, multiple of the NAD level in untreated cells)",[2],2.9x @1
"Cn1c(=O)c2c(ncn2CCOC(=O)c2ccc[n+]([C@@H]3O[C@H](COP(=O)([O-])O)[C@@H](O)[C@H]3O)c2)n(C)c1=O [Compound 2P, ((2R,3S,4R,5R)-5-(3-((2-(1,3-dimethyl-2,6-dioxo-1,2,3,6-tetrahydro-7H-purin-7-yl)ethoxy)carbonyl)pyridin-1-ium-1-yl)-3,4-dihydroxytetrahydrofuran-2-yl)methyl hydrogen phosphate]","NAD Elevation Assay (NAD level normalized to total protein, multiple of the NAD level in untreated cells)",[3]; 2 mM compound,1.6x @2
"Cn1cnc2c1c(=O)n(CCOC(=O)c1ccc[n+]([C@@H]3O[C@H](CO)[C@@H](O)[C@H]3O)c1)c(=O)n2C.O=S(=O)([O-])C(F)(F)F [Compound 3, 1-((2R,3R,4S,5R)-3,4-dihydroxy-5-(hydroxymethyl)tetrahydrofuran-2-yl)-3-((2-(3,7-dimethyl-2,6-dioxo-2,3,6,7-tetrahydro-1H-purin-1-yl)ethoxy)carbonyl)pyridin-1-ium trifluoromethanesulfonate]",NAD Elevation Assay,[1],Active at 0.4-2
"Cn1cnc2c1c(=O)n(CCOC(=O)c1ccc[n+]([C@@H]3O[C@H](COP(=O)([O-])O)[C@@H](O)[C@H]3O)c1)c(=O)n2C [Compound 4, ((2R,3S,4R,5R)-5-(3-((2-(3,7-dimethyl-2,6-dioxo-2,3,6,7-tetrahydro-1H-purin-1-yl)ethoxy)carbonyl)pyridin-1-ium-1-yl)-3,4-dihydroxytetrahydrofuran-2-yl)methyl hydrogen phosphate]","NAD Elevation Assay (NAD level normalized to total protein, multiple of the NAD level in untreated cells)",[3]; 0.1 mM compound,2.1x @0.1
"Cn1cnc2c1c(=O)n(CCCOC(=O)c1ccc[n+]([C@@H]3O[C@H](COP(=O)([O-])O)[C@@H](O)[C@H]3O)c1)c(=O)n2C [Compound 5P, ((2R,3S,4R,5R)-5-(3-((3-(3,7-dimethyl-2,6-dioxo-2,3,6,7-tetrahydro-1H-purin-1-yl)propoxy)carbonyl)pyridin-1-ium-1-yl)-3,4-dihydroxytetrahydrofuran-2-yl)methyl hydrogen phosphate]","NAD Elevation Assay (NAD level normalized to total protein, multiple of the NAD level in untreated cells)",[4],2.2x @0.25
"Cn1c(=O)c2c(ncn2CC(=O)OCCCOC(=O)c2ccc[n+]([C@@H]3O[C@H](COP(=O)([O-])O)[C@@H](O)[C@H]3O)c2)n(C)c1=O [Compound 6P, ((2R,3S,4R,5R)-5-(3-((3-(2-(1,3-dimethyl-2,6-dioxo-1,2,3,6-tetrahydro-7H-purin-7-yl)acetoxy)propoxy)carbonyl)pyridin-1-ium-1-yl)-3,4-dihydroxytetrahydrofuran-2-yl)methyl hydrogen phosphate]","NAD Elevation Assay (NAD level normalized to total protein, multiple of the NAD level in untreated cells)",[4],2.0x @0.25
"CCCn1cnc2c1c(=O)n(CCOC(=O)c1ccc[n+]([C@@H]3O[C@H](COP(=O)([O-])O)[C@@H](O)[C@H]3O)c1)c(=O)n2C [Compound 7P, ((2R,3S,4R,5R)-3,4-dihydroxy-5-(3-((2-(3-methyl-2,6-dioxo-7-propyl-2,3,6,7-tetrahydro-1H-purin-1-yl)ethoxy)carbonyl)pyridin-1-ium-1-yl)tetrahydrofuran-2-yl)methyl hydrogen phosphate]","NAD Elevation Assay (NAD level normalized to total protein, multiple of the NAD level in untreated cells)",[4],1.9x @0.25
"Cn1cnc2c1c(=O)n(CCNC(=O)c1ccc[n+]([C@@H]3O[C@H](COP(=O)([O-])O)[C@@H](O)[C@H]3O)c1)c(=O)n2C [Compound 9P, ((2R,3S,4R,5R)-5-(3-((2-(3,7-dimethyl-2,6-dioxo-2,3,6,7-tetrahydro-1H-purin-1-yl)ethyl)carbamoyl)pyridin-1-ium-1-yl)-3,4-dihydroxytetrahydrofuran-2-yl)methyl hydrogen phosphate]","NAD Elevation Assay (NAD level normalized to total protein, multiple of the NAD level in untreated cells)",[3]; 0.25 mM compound,1.9x @0.25
"CCn1c(=O)c2c(ncn2CCOC(=O)c2ccc[n+]([C@@H]3O[C@H](COP(=O)([O-])O)[C@@H](O)[C@H]3O)c2)n(CC)c1=O [Compound 11P, ((2R,3S,4R,5R)-5-(3-((2-(1,3-diethyl-2,6-dioxo-1,2,3,6-tetrahydro-7H-purin-7-yl)ethoxy)carbonyl)pyridin-1-ium-1-yl)-3,4-dihydroxytetrahydrofuran-2-yl)methyl hydrogen phosphate]","NAD Elevation Assay (NAD level normalized to total protein, multiple of the NAD level in untreated cells)",[3]; 2 mM compound,1.3x @2
